Series [1] can be described thus: Determination of compound aqueous solubility in M63 media. The format is physicochemical. The conditions noted are these: in M63 media at 35 °C. The procedure: Determination of Compound Aqueous Solubility. Compound stocks (100 mM in DMSO) were prepared from […]
powder and then further diluted with DMSO to prepare 20 mM working solutions, which were diluted as needed […]
in DMSO. 15 µL o f the DMSO solution was then d iluted to a final volume o f 1.0 mL in M63 media. Six solutions […]
were prepared for each compound, each with a distinct concentration and 1.5% DMSO (v/v). 700 µL of each […]
compound solution was transferred to a polystyrene 48-well plate (VWR), followed by acquisition of UV-vis […]
spectra (300 to 700 nm) with the aid of an Epoch 2 microplate reader (B i o Te k ). […]
Following the acquisition of UV-vis spectra, each of the wells in the plate was inspected under a […]
microscope for evidence of precipitation. Evidence of precipitation at any given concentration was determined by observing a shift in the baseline of the UV-vis spectra relative to the blank (M63 media) and/or evidence of visual precipitation with the aid of a micros cope. […]

Series [2] deals with P. aeruginosa PAO1 biofilm. The series can be described thus: Pellicle biofilm assay, % survival of biofilm cells. The format is cell-based. The conditions noted are these: for % Survival Biofilm, P. aeruginosa PAO1: 24 h. The procedure: We studied the susceptibility of mature biofilms to treatment with analogues of 4-aminoisoindoline-1,3-dione using biofilms cultured at the […] interface (pellicles) using methodology reported previously. To determine the susceptibility of pellicle biofilms to inhibitors of the Pa Bfr–Bfd complex, we cultured 27 h old biofilms in PI media supplemented with 20 μM Fe, as presented in Experimental Methods. The mature biofilms were transferred onto glass coverslips by touching the pellicle with the surface of the coverslips. The coverslip-adhered biofilms were then exposed to treatment solution consisting of AB media supplemented with 20 μM Fe, 1.5% DMSO, 0.025% HPMC, and 4-aminoisoindoline-1,3-dione derivative or commercial antibiotic for 24 h. The biofilms were then harvested and washed, and the cells were dispersed into sterile PBS by vortexing in the presence of zirconia beads prior to plating and enumerating viable cells (CFU/mL) to calculate % cell survival.
Biofilm Assays. Pellicle biofilms formed by EYF P-expressing P. aeruginosa PAO1 wer e carried ou t as repo rted previously,13 with some modifications. Starter cultures were diluted to OD600 = 0.001 in 4 mL PI media supplement ed with 20 µM Fe , trans ferred to petri dishes (35 x 10 mm) and incubated statically for 27 h at 30 °C.
The pellicles were transferred onto circular microscope glass coverslips (12 mm diameter) by gently allowing the surface of a coverslip to contact the pellicle. Th e biofilm- attached coverslip was washed (3 x) by floating it on top of PBS with the biofilm exposed to the liquid and then placed on top of 1.5 mL AB challenge media in a well of a 12-well microplate, with the biofilm exposed to the media at 30 °C for 24 h. AB challenge media is AB minimal media supplemented with 1.5% DMSO, 0.025% HPMC, 20 μ M Fe, and 4-aminoisoindoline-1,3- dione […]
The 4-aminoisoindoline-1,3- dione derivative solutions were prep ared from powder as 10 mM st ock solutions in DMSO and then diluted in AB challenge media to the appropriate concentrations. Following the 24 h challenge, planktonic and loosely attached cells were washed 3 times by floating the coverslip-attached biofilms with the biofilm facing down into a petri d ish (60 x 15 mm) containing 15 mL PBS, and incubating for 5 min. The biofilm was removed from the coversli p and the cells releas ed f rom the extra cel lular matrix by placing th e cov erslip-attach ed biofi lm in a 50 mL conical tub e containing a 2-mL sup ension of zirconia beads (0.1 mm diam eter, BiosSpec Produ cts), 10 mL PBS, 1 mM MgSO4, 20 µg/mL alginate lyase and 40 µg/mL DNAse. The mixture was incubated for three min at room temperature, and then vigorously vortexed for four min. Following sedimentation of the zirconia beads, a 100 μ L aliquot was utilized for serial dilution in PBS and plating on PIA plates for viable cell enumeration (CFU/mL). […]

For another series, the system named is A. baumannii 5075. Put plainly: MIC, broth microdilution in M63 media. The format is cell-based. As to the method: (§1) Measurement of Minimum Inhibitory Concentrations (MIC). The MIC of compounds and select ed antibiotics against three strains of A. baumannii (5075, ATCC 17988, and ATCC 19606) were determined via the broth microdilution method according to Clinical and Laboratory Standard Instit ute (CLSI) guidelines,15 but culturing […]
(§2) To establish a 2-fold dilution series of compound, 985 μ L of diluted cells was mixed with 15 μ L of compound […]
(§3) dissolved in DMSO, such that the resultant solution had the highest concentration of compound or antibiotic tested and 1.5% DMSO. To carry out the serial dilution from the highest compound concentration, a 150 μ L solution of higher concentration compound or antibiotic was mixed with 150 μ L of cell suspension containing 1.5% DMSO in the wells of a 96 well plate.
(§4) Th e 96 well plate was in cubated for 20 hat 35 °C with continuous orbital shaking (205 cpm) in an Epoch2 microplate reader (BioTek), monitoring the growth by […]
(§5) following the OD600. […]
(§6) FFFFFF = MMMMMMAA iiii ccllccbbiiiicccciilliiMMMMMMAA+ MMMMMMBB iiii ccllccbbiiiicccciilliiMMMMMMBB S2 Time Kill Assays. Time-kill assays were performed with A. baumannii 507 5 by the broth macro- dilution method in M63- medium containing 1.5% DMSO. An overnight culture was diluted to approximately 5 x10^5 CFU/mL in fresh M63 media. The test solutions were prepared by adding compound (KM-5- 35, or KM-5- 25) dissolved in DMSO to 5 mL of diluted cell suspension to yield a solution of the desired compound concentration and 1.5% DMSO, or by the addition of antibiotic dissolved in water and a small volume of DMSO to produce the desired
A general note: Dilution methods test growth across graded concentrations, often in twofold steps.

A further series relates to A. baumannii ATCC 17978. Put plainly: MIC, broth microdilution in M63 media. The format is cell-based. The procedure: as §1, §2, §3, §4, §5, §6
In another series the test system is A. baumannii ATCC 19606. The series can be described thus: MIC, broth microdilution in M63 media. The format is cell-based. As to the method: as §1, §2, §3, §4, §5, §6
Setting [3] is: biofilm challenged with 50 µM compound.
[4] abbreviates: biofilm challenged with 20 µM compound.

The values that follow come from article PMC12261321, “Inhibitors of the Bacterioferritin Ferredoxin Complex Dysregulate Iron Homeostasis and Kill and Biofilm-Embedded Cells” (ACS Infectious Diseases, 2025).

Converted amounts (≈) assume the structure as drawn. A value given as a limit tells only on which side of the number the result lay.

Consider `O=C1NC(=O)c2c(NCc3cc(Cl)ccc3O)cccc21` [KM-5-25, 4-((5-Chloro-2-hydroxybenzyl)amino)isoindoline-1,3-dione], for which, in series [1], the solubility at 4 h is 80 µM (≈ 24.2 µg/mL). Also, the biofilm cell death result in series [2] (27 h old pellicle biofilms treated 24 h) is reported as “concentration-dependent biofilm cell death”. Moreover, the “% Survival Biofilm, P. aeruginosa PAO1” value in series [2] (setting [3]) turned out to be 17 ± 6%. The minimal inhibitory concentration (MIC) with A. baumannii 5075 (20 h) is on record as 40 µM (≈ 12.1 µg/mL); against A. baumannii ATCC 17978 (20 h), 40 µM (≈ 12.1 µg/mL); in the series with A. baumannii ATCC 19606 (20 h) it was 30 µM (≈ 9.08 µg/mL).
Molecule `O=C1NC(=O)c2c(NCc3cc(Br)ccc3O)ccc(Cl)c21` [SB-16-124] showed a solubility at 4 h in series [1] of 20 µM (≈ 7.63 µg/mL). Further, the “% Survival Biofilm, P. aeruginosa PAO1” value in series [2] (setting [4]) was “Not active”. Also, the minimum inhibitory concentration (MIC) with A. baumannii 5075 (20 h), with A. baumannii ATCC 17978 (20 h) and against A. baumannii ATCC 19606 (20 h) was 20 µM (≈ 7.63 µg/mL) in each case.
Regarding `O=C1NC(=O)c2c(NCc3ccc4c(c3)COC4)cccc21` [SB-17-80], the solubility at 4 h in series [1] is on record as 20 µM (≈ 5.89 µg/mL). In addition, the “% Survival Biofilm, P. aeruginosa PAO1” value in series [2] (setting [4]) is “Not active”. For the same molecule, the “MIC, A. baumannii 5075” value with A. baumannii 5075 (20 h) is reported as “Not active”. In the series on A. baumannii ATCC 17978 (20 h), the “MIC, A. baumannii 17978” value is “Not active”. Moreover, the “MIC, A. baumannii 19606” value in the series on A. baumannii ATCC 19606 (20 h) was “Not active”.
Turning to `O=C1NC(=O)c2c(NCc3cccc4c3CCN4)cccc21` [SB-17-140], the solubility at 4 h in series [1] (M63 media with 1.5% DMSO, 35 °C, aqueous buffer, kinetic from dmso stock) was found to be 100 µM (≈ 29.3 µg/mL). For the same molecule, the “% Survival Biofilm, P. aeruginosa PAO1” value in series [2] (setting [3]) was “Not active”. Also, the MIC was more than 100 µM with A. baumannii 5075 (Acinetobacter baumannii, 5075, 20 h); more than 100 µM in the series on A. baumannii ATCC 17978 (Acinetobacter baumannii, ATCC17978, 20 h); more than 100 µM in the series with A. baumannii ATCC 19606 (Acinetobacter baumannii, ATCC19606, 20 h).
As for `O=C1NC(=O)c2c(NCc3c(O)cccc3Cl)cccc21` [KM-5-29], in series [1], the solubility at 4 h came out at 60 µM (≈ 18.2 µg/mL). In series [2] (setting [3]), the “% Survival Biofilm, P. aeruginosa PAO1” value is 50 ± 7%. In addition, the MIC with A. baumannii 5075 (20 h), against A. baumannii ATCC 17978 (20 h) and against A. baumannii ATCC 19606 (20 h) was more than 60 µM in each case.
Molecule `O=C1NC(=O)c2c(NCc3cc(Cl)c(O)cc3O)cccc21` [SB-16-160] came in with a solubility at 4 h in series [1] of 80 µM (≈ 25.5 µg/mL). Moreover, the “% Survival Biofilm, P. aeruginosa PAO1” value in series [2] (setting [3]) is “Not active”. In addition, the minimal inhibitory concentration (MIC) in the series with A. baumannii 5075 (20 h), in the series with A. baumannii ATCC 17978 (20 h) and in the series on A. baumannii ATCC 19606 (20 h) was more than 80 µM throughout.
In turn, `O=C1NC(=O)c2c(NCc3c(O)cccc3Br)cccc21` [EB-5-72] registered a solubility at 4 h in series [1] of 60 µM (≈ 20.8 µg/mL). For the same molecule, the “% Survival Biofilm, P. aeruginosa PAO1” value in series [2] (setting [3]) is 45 ± 0.4%. The MIC in the series on A. baumannii 5075 (20 h), in the series with A. baumannii ATCC 17978 (20 h) and against A. baumannii ATCC 19606 (20 h) was more than 60 µM throughout.
For the molecule `Cc1cc(Cl)cc(CNc2cccc3c2C(=O)NC3=O)c1O` [SB-16-156], the solubility at 4 h in series [1] came to 40 µM (≈ 12.7 µg/mL). Further, the “% Survival Biofilm, P. aeruginosa PAO1” value in series [2] (biofilm challenged with 30 µM compound) came to 44 ± 18%. The MIC in the series on A. baumannii 5075 (20 h), with A. baumannii ATCC 17978 (20 h) and in the series on A. baumannii ATCC 19606 (20 h) was more than 40 µM in each case.
Molecule `O=C1NC(=O)c2c(NCc3cc(F)ccc3O)ccc(Br)c21` [SB-16-67] gave a solubility at 4 h in series [1] of 40 µM (≈ 14.6 µg/mL). In addition, the minimal inhibitory concentration (MIC) against A. baumannii 5075 (20 h) is reported as 40 µM (≈ 14.6 µg/mL); in the series with A. baumannii ATCC 17978 (20 h), 20 µM (≈ 7.3 µg/mL); against A. baumannii ATCC 19606 (20 h), 30 µM (≈ 11 µg/mL).

As a reminder, the solubility is the concentration that dissolves in the medium under given conditions. Low values mean a poorly soluble substance, high ones a readily soluble substance. A word on the MIC: it is the smallest concentration in the dilution series that meets the test's criterion for growth inhibition.
